Results from patent publication US20240383886A1, “Protein Tyrosine Phosphatase Degraders and Methods of Use Thereof” (CALICO LIFE SCIENCES LLC, priority 2019, published 2024).

Tests used:
PTPN2 [1] = biological target: T1, PTPN2 (Homo sapiens, UniProt P17706); experiment: HiBiT-Degradation 293T.109 PTPN2 (Nano-Glo HiBiT Lytic Assay); format: cell-based; details: 293T.109 (HiBiT-PTPN2) cells, 24.0 hours
T1 construct: expressed in transfected cells; host or cells: 293T (293T.109 HiBiT-PTPN2 line; parental 293T WT from ATCC)
T1 sequence (P17706 1-415): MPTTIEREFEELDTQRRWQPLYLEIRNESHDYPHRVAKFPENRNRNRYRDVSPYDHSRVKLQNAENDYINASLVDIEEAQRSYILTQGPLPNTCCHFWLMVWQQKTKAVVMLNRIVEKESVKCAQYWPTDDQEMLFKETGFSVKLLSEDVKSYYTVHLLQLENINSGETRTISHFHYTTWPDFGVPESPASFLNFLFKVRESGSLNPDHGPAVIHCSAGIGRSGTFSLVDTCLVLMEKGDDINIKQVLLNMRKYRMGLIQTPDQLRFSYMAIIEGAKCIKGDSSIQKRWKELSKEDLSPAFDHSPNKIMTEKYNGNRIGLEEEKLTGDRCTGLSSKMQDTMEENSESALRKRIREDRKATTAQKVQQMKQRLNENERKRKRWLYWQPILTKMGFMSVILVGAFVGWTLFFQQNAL
Summary of the method: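 293T cells ectopically expressing N-terminally HiBiT-tagged PTPN2 were seeded at 5000 cells/well. They were treated with an 11-point half-log titration from 10 μM, in duplicate, for 24 hours at 37° C., 5% CO2. Remaining tagged PTPN2 was quantified by lytic HiBiT luminescence against untreated and no-reagent controls.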

PTPN2 [2] = experiment: HiBiT-Degradation B16F10.4 PTPN2; format: cell-based; details: B16F10.4 cells, 24.0 hours

SMILES: Cn1c(=O)n(C2CCC(=O)NC2=O)c2ccc(Nc3ccc(C(=O)Nc4ccc5c(F)c(N6CC(=O)NS6(=O)=O)c(O)cc5c4)cc3)cc21 (centres unmarked) [Example 104, 4-[[1-(2,6-dioxo-3-piperidyl)-3-methyl-2-oxo-benzimidazol-5-yl]amino]-N-[5-fluoro-7-hydroxy-6-(1,1,4-trioxo-1,2,5-thiadiazolidin-2-yl)-2-naphthyl]benzamide]
- DC50 (PTPN2 [1]): 50 to 200 nM
- DC50 (PTPN2 [2]): 50 to 200 nM

SMILES: O=C1CCC(n2c(=O)oc3cc(C4CCN(CC(=O)Nc5ccc6c(F)c(N7CC(=O)NS7(=O)=O)c(O)cc6c5)CC4)ccc32)C(=O)N1 (centres unmarked) [Example 23, 2-[4-[3-(2,6-dioxo-3-piperidyl)-2-oxo-1,3-benzoxazol-6-yl]-1-piperidyl]-N-[5-fluoro-7-hydroxy-6-(1,1,4-trioxo-1,2,5-thiadiazolidin-2-yl)-2-naphthyl]acetamide]
- DC50 (PTPN2 [1]): 10 to 50 nM
- DC50 (PTPN2 [2]): 50 to 200 nM

SMILES: Cn1c(=O)n(C2CCC(=O)NC2=O)c2ccc(C3CCN(CCC(=O)Nc4ccc5c(F)c(N6CC(=O)NS6(=O)=O)c(O)cc5c4)CC3)cc21 (centres unmarked) [Example 170, N-(6-(1,1-dioxido-4-oxo-1,2,5-thiadiazolidin-2-yl)-5-fluoro-7-hydroxynaphthalen-2-yl)-3-(4-(1-(2,6-dioxopiperidin-3-yl)-3-methyl-2-oxo-2,3-dihydro-1H-benzo[d]imidazol-5-yl)piperidin-1-yl)propanamide]
- DC50 (PTPN2 [1]): 10 to 50 nM
- DC50 (PTPN2 [2]): 50 to 200 nM

SMILES: Cn1c(=O)n(C2CCC(=O)NC2=O)c2ccc(Nc3ccc(CC(=O)Nc4ccc5c(F)c(N6CC(=O)NS6(=O)=O)c(O)cc5c4)cc3)cc21 (centres unmarked) [Example 105, 2-[4-[[1-(2,6-dioxo-3-piperidyl)-3-methyl-2-oxo-benzimidazol-5-yl]amino]phenyl]-N-[5-fluoro-7-hydroxy-6-(1,1,4-trioxo-1,2,5-thiadiazolidin-2-yl)-2-naphthyl]acetamide]
- DC50 (PTPN2 [1]): 10 to 50 nM
- DC50 (PTPN2 [2]): 10 to 50 nM

SMILES: Cn1c(=O)n(C2CCC(=O)NC2=O)c2ccc(C3CCN(CC(=O)N4CC=C(c5ccc6cc(O)c(N7CC(=O)NS7(=O)=O)c(F)c6c5)C4)CC3)cc21 (centres unmarked) [Example 88, 3-[5-[1-[2-[3-[8-fluoro-6-hydroxy-7-(1,1,4-trioxo-1,2,5-thiadiazolidin-2-yl)-2-naphthyl]-2,5-dihydropyrrol-1-yl]-2-oxo-ethyl]-4-piperidyl]-3-methyl-2-oxo-benzimidazol-1-yl]piperidine-2,6-dione]
- DC50 (PTPN2 [1]): 50 to 200 nM
- DC50 (PTPN2 [2]): 50 to 200 nM

SMILES: Cn1c(=O)n(C2CCC(=O)NC2=O)c2ccc(N3CCC(CNC(=O)c4ccc5c(F)c(N6CC(=O)NS6(=O)=O)c(O)cc5c4)CC3)cc21 (centres unmarked) [Example 99, N-[[1-[1-(2,6-dioxo-3-piperidyl)-3-methyl-2-oxo-benzimidazol-5-yl]-4-piperidyl]methyl]-5-fluoro-7-hydroxy-6-(1,1,4-trioxo-1,2,5-thiadiazolidin-2-yl)naphthalene-2-carboxamide]
- DC50 (PTPN2 [1]): 50 to 200 nM
- DC50 (PTPN2 [2]): 50 to 200 nM

SMILES: Cn1c(=O)n(C2CCC(=O)NC2=O)c2ccc([C@H]3CC[C@@H](CNC(=O)c4ccc5c(F)c(N6CC(=O)NS6(=O)=O)c(O)cc5c4)CC3)cc21 (single isomer, unassigned) [Example 75]
- DC50 (PTPN2 [1]): 50 to 200 nM
- DC50 (PTPN2 [2]): 50 to 200 nM

SMILES: Cn1c(=O)n(C2CCC(=O)NC2=O)c2ccc(C3CCN(C(=O)CN4CC[C@@H](COc5ccc6cc(O)c(N7CC(=O)NS7(=O)=O)c(F)c6c5)C4)CC3)cc21 (stereo partly drawn) [Example 141, 3-[5-[1-[2-[(3R)-3-[[8-fluoro-6-hydroxy-7-(1,1,4-trioxo-1,2,5-thiadiazolidin-2-yl)-2-naphthyl]oxymethyl]pyrrolidin-1-yl]acetyl]-4-piperidyl]-3-methyl-2-oxo-benzimidazol-1-yl]piperidine-2,6-dione]
- DC50 (PTPN2 [1]): 10 to 50 nM
- DC50 (PTPN2 [2]): 50 to 200 nM

SMILES: O=C1CCC(N2Cc3c(NCc4cn(CCC(=O)Nc5ccc6c(F)c(N7CC(=O)NS7(=O)=O)c(O)cc6c5)nn4)cccc3C2=O)C(=O)N1 (centres unmarked) [Example 62]
- DC50 (PTPN2 [1]): 200 to 1000 nM
- DC50 (PTPN2 [2]): ≥ 1000 nM

SMILES: Cn1c(=O)n(C2CCC(=O)NC2=O)c2ccc(C3CCN(CC(=O)Nc4ccc5c(F)c(N6CC(=O)NS6(=O)=O)c(O)cc5c4)CC3)cc21 (centres unmarked) [Example 22, N-(6-(1,1-dioxido-4-oxo-1,2,5-thiadiazolidin-2-yl)-5-fluoro-7-hydroxynaphthalen-2-yl)-2-(4-(1-(2,6-dioxopiperidin-3-yl)-3-methyl-2-oxo-2,3-dihydro-1H-benzo[d]imidazol-5-yl)piperidin-1-yl)acetamide]
- DC50 (PTPN2 [1]): < 10 nM
- DC50 (PTPN2 [2]): 50 to 200 nM
